US10092584B2 (Achillion Pharmaceuticals, Inc., priority 2015, dated 2018)
Where two headings read alike, the source gives them in different places.

Target: T1, Human Factor D (Homo sapiens, UniProt P00746)
T1 construct: purified from human serum; purchased Complement Technology, Inc; host or cells: human serum
Assay: Human Factor D assay (Example 8)
Type: biochemical
Description: Human Factor D (purified from human serum, Complement Technology, Inc.) at 80 nM final concentration was incubated with test compound at various concentrations for 5 minutes at room temperature in 50 mM Tris, 1M NaCl, pH 7.5. A synthetic substrate Z-L-Lys-SBzl and DTNB (Ellman's reagent) are added to final concentrations of 100 μM each. […] IC50 values are calculated by nonlinear regression of complement Factor D reaction rates as a function of test compound concentration.

[1] = Table 3, Human Factor D 80 nM, substrate Z-L-Lys-SBzl, read-out: IC50 (Stars)
[2] = Table 1, Human Factor D 80 nM, substrate Z-L-Lys-SBzl, read-out: IC50
[3] = Table 2, Human Factor D 80 nM, substrate Z-L-Lys-SBzl, read-out: IC50

T1 sequence (P00746 26-253): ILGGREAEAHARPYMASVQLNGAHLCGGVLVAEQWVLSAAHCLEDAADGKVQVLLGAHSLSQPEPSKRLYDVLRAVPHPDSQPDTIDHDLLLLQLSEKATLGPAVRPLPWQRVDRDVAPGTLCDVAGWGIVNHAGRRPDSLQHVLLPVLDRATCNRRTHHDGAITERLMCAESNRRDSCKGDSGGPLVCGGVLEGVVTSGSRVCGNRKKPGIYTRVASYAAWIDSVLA

Row | Structure (SMILES) | IC50 [1] [µM] | IC50 [2] [µM] | other results
1 | CC(=O)c1cn(CC(=O)N2C[C@H](F)C[C@H]2C(=O)Nc2cccc(-c3cc(F)c(F)cc3Cl)c2F)c2ccccc12 [Compound 82, (2S,4R)-1-(2-(3-acetyl-1H-indol-1-yl)acetyl)-N-(2′-chloro-2,4′,5′-trifluorobiphenyl-3-yl)-4-fluoropyrrolidine-2-carboxamide] |  |  | IC50: < 1 µM
2 | NC(=O)N1CC(NC(=O)[C@@H]2CCC[C@H]2C(=O)NCc2cccc(Cl)c2F)c2ccccc21 (stereo partly drawn) [Compound 26, (1R,2R)-N1-(1-carbamoylindolin-3-yl)-N2-(3-chloro-2-fluorobenzyl)cyclo-pentane-1,2-dicarboxamide] |  | > 10 | 
3 | O=C(NCc1cccc(Cl)c1F)[C@@H]1C[C@@H](F)CN1C(=O)CN1C=NS(=O)(=O)c2ccccc21 [Compound 65, (2S,4R)-N-(3-chloro-2-fluorobenzyl)-1-(2-(1,1-dioxido-4H-benzo[e][1,2,4]thiadiazin-4-yl)acetyl)-4-fluoropyrrolidine-2-carboxamide] |  | > 10 | 
4 | CC(=O)c1cn(CC(=O)N2C[C@H](F)C[C@H]2C(=O)Nc2cccc(-c3ccccc3Cl)c2F)c2c(C3CC3)cccc12 [Compound 115, (2S,4R)-1-(2-(3-acetyl-7-cyclopropyl-1H-indol-1-yl)acetyl)-N-(2′-chloro-2-fluorobiphenyl-3-yl)-4-fluoropyrrolidine-2-carboxamide] |  |  | IC50: < 1 µM
5 | NC(=O)c1nn(CC(=O)N2C[C@H](F)C[C@H]2C(=O)Nc2cccc(-c3cc(F)c(F)cc3Cl)c2F)c2ccccc12 [Compound 80, 1-(2-((2S,4R)-2-((2′-Chloro-2,4′,5′-trifluoro-[1,1′-biphenyl]-3-yl)carbamoyl)-4-fluoropyrrolidin-1-yl)-2-oxoethyl)-1H-indazole-3-carboxamide] |  |  | IC50: < 1 µM
6 | CC(=O)n1cc(NC(=O)[C@H]2CCCN2C(=O)NCc2cccc(Cl)c2F)c2ccccc21 [Compound 9, (R)-N2-(1-acetyl-1H-indol-3-yl)-N1-(3-chloro-2-fluorobenzyl)pyrroli-dine-1,2-dicarboxamide] |  | > 10 | 
7 | NC(=O)c1nn(CC(=O)N2C[C@H](F)C[C@H]2C(=O)Nc2cccc(-c3cc(F)c(F)cc3Cl)c2F)c2ccc(Br)cc12 [Compound 130, 5-bromo-1-(2-((2S,4R)-2-(2′-chloro-2,4′,5′-trifluorobiphenyl-3-ylcarbamoyl)-4-fluoropyrrolidin-1-yl)-2-oxoethyl)-1H-indazole-3-carboxamide] |  |  | IC50 [3]: < 1 µM
8 | CC(=O)c1ccc(Cl)c(-c2cccc(NC(=O)[C@@H]3C[C@@H](F)CN3C(=O)Cn3nc(C(N)=O)c4ccccc43)c2F)c1 [Compound 117, 1-(2-((2S,4R)-2-((5′-Acetyl-2′-chloro-2-fluoro-[1,1′-biphenyl]-3-yl)carbamoyl)-4-fluoropyrrolidin-1-yl)-2-oxoethyl)-1H-indazole-3-carboxamide] |  |  | IC50: < 1 µM
9 | NC(=O)n1cc(NC(=O)N2C[C@H](F)C[C@H]2Cn2cc(-c3ccc(F)cc3)nn2)c2ccccc21 [Compound 28, 3-((2S,4R)-4-fluoro-2-((4-(4-fluorophenyl)-1H-1,2,3-triazol-1-yl)methyl)pyrrolidine-1-carboxamido)-1H-indole-1-carboxamide] |  | > 10 | 
10 | CC(=O)c1nn(CC(=O)N2C[C@H](F)C[C@H]2C(=O)Nc2cccc(Br)n2)c2cnc(Cl)cc12 [Compound 399, (2S,4R)-1-(2-(3-Acetyl-5-chloro-1H-pyrazolo[3,4-c]pyridin-1-yl)acetyl)-N-(6-bromopyridin-2-yl)-4-fluoropyrrolidine-2-carboxamide] | < 1 |  | 
11 | O=C(NCc1cccc(Cl)c1F)[C@@H]1C[C@@H](F)CN1C(=O)Cn1cc(-c2cnco2)c2ccccc21 [Compound 452, (2S,4R)—N-(3-chloro-2-fluorobenzyl)-4-fluoro-1-(2-(3-(oxazol-5-yl)-1H-indol-1-yl)acetyl)pyrrolidine-2-carboxamide] | < 1 |  | 
12 | O=C(NCc1cccc(Cl)c1F)[C@@H]1C[C@@H](F)CN1C(=O)Nc1cn(C(=O)C2CC2)c2ccccc12 [Compound 54, (2S,4R)-N2-(3-chloro-2-fluorobenzyl)-N1-(1-(cyclopropanecarbonyl)-1H-indol-3-yl)-4-fluoropyrrolidine-1,2-dicarboxamide] |  | < 1 | 
13 | O=C1CCCc2c1c1ccccc1n2CC(=O)N1C[C@H](F)C[C@H]1C(=O)NCc1cccc(Cl)c1F [Compound 37, (2S,4R)-N-(3-chloro-2-fluorobenzyl)-4-fluoro-1-(2-(4-oxo-3,4-dihydro-1H-carbazol-9(2H)-yl)acetyl)pyrrolidine-2-carboxamide] |  | < 1 | 
14 | O=C(NCc1cccc(Cl)c1F)[C@@H]1C[C@@H](F)CN1C(=O)Cn1cc(-c2cnco2)c2ccccc21 [Compound 133, (2S,4R)-N-(3-chloro-2-fluorobenzyl)-4-fluoro-1-(2-(3-(oxazol-5-yl)-1H-indol-1-yl)acetyl) pyrrolidine-2-carboxamide] |  |  | IC50 [3]: < 1 µM

Now from value to compound, other results behind:

Row | IC50 [1] [µM] | IC50 [2] [µM] | Structure (SMILES) | other results
15 | < 1 |  | NC(=O)c1nn(CC(=O)N2C[C@H](F)C[C@H]2C(=O)Nc2cccc(-c3ccc4nc[nH]c4c3F)c2F)c2ccccc12 [Compound 456, 1-(2-((2S,4R)-4-fluoro-2-((2-fluoro-3-(7-fluoro-1H-benzo[d]imidazol-6-yl)phenyl)carba-moyl)pyrrolidin-1-yl)-2-oxoethyl)-1H-indazole-3-carboxamide] | 
16 | < 1 |  | CC(=O)c1nn(CC(=O)N2C[C@H](F)C[C@H]2C(=O)Nc2cccc(-c3ccccc3Cl)c2F)c2cc(C(=O)O)sc12 [Compound 363] | 
17 | < 1 |  | Cc1nc2c(s1)c(C(N)=O)nn2CC(=O)N1C[C@H](F)C[C@H]1C(=O)Nc1cccc(-c2ccccc2Cl)c1F [Compound 383, 1-(2-((2S,4R)-2-(2′-Chloro-2-fluorobiphenyl-3-ylcarbamoyl)-4-fluoropyrrolidin-1-yl)-2-oxoethyl)-5-methyl-1H-pyrazolo[3,4-d]thiazole-3-carboxamide] | 
18 |  | < 1 | CC(=O)c1cn(CC(=O)N2C[C@H](F)C[C@H]2C(=O)Nc2cccc(-c3ccccc3Cl)c2F)c2c(-c3cn[nH]c3)cccc12 [Compound 114, (2S,4R)-1-(2-(3-acetyl-7-(1H-pyrazol-4-yl)-1H-indol-1-yl)acetyl)-N-(2′-chloro-2-fluorobiphenyl-3-yl)-4-fluoropyrrolidine-2-carboxamide] | 
19 | < 1 |  | CC(=O)c1nn(CC(=O)N2C[C@H](F)C[C@H]2C(=O)Nc2cccc(-c3ccc4c(c3)CNC4)c2F)c2ccccc12 [Compound 439, (2S,4R)-1-(2-(3-Acetyl-1H-indazol-1-yl)acetyl)-4-fluoro-N-(2-fluoro-3-(isoindolin-5-yl)phenyl)pyrrolidine-2-carboxamide] | 
20 | < 1 |  | CC(=O)c1nn(CC(=O)N2C[C@H](F)C[C@H]2C(=O)Nc2cccc(-c3ccc4c(c3)NCC4)c2F)c2ccccc12 [Compound 437, (2S,4R)-1-(2-(3-acetyl-1H-indazol-1-yl)acetyl)-4-fluoro-N-(2-fluoro-3-(indolin-6-yl)phenyl)pyrroli-dine-2-carboxamide] | 
21 |  | < 1 | NC(=O)c1nn(CC(=O)N2C[C@H](F)C[C@H]2C(=O)Nc2cccc(-c3ccccc3Cl)c2F)c2ccsc12 [Compound 99, 1-(2-((2S,4R)-2-((2′-Chloro-2-fluoro-[1,1′-biphenyl]-3-yl)carbamoyl)-4-fluoropyrrolidin-1-yl)-2-oxoethyl)-1H-thieno[3,2-c]pyrazole-3-carboxamide] | 
